Results taken from PubChem BioAssay AID256 (DTP/NCI, 2004).
Toxic doses and inconclusive results are not listed.

System: CD2F1 mice, L1210 leukemia ip, survival T/C
Test: NCI In Vivo Anticancer Drug Screen. Data for tumor model L1210 Leukemia (intraperitoneal) in CD2F1 (CDF1) mice
Details: higher = longer survival
Procedure, shortened: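 Compound-dosed mice with transplantable tumor versus matched vehicle controls; endpoint ratio T/C reported.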

CCC1(O)CC2CN(CCc3c([nH]c4ccccc34)C(C(=O)OC)(c3cc4c(cc3OC)N(C)C3C(O)(C(N)=O)C(O)C5(CC)C=CCN6CCC43C65)C2)C1 (centres undefined) (tested in a mixture with another compound)
T/C (endpoint: mean survival time, dose: 0.13 mg/kg/injection, schedule: Q01DX009 (ip), vehicle: water): 121 % of control | T/C (endpoint: mean survival time, dose: 0.22 mg/kg/injection, schedule: Q01DX009 (ip), vehicle: water): 123 % of control | T/C (endpoint: mean survival time, dose: 0.23 mg/kg/injection, schedule: Q04DX003 (ip), vehicle: water): 121 % of control | T/C (endpoint: mean survival time, dose: 0.36 mg/kg/injection, schedule: Q01DX009 (ip), vehicle: water): 122 % of control | T/C (endpoint: mean survival time, dose: 0.39 mg/kg/injection, schedule: Q04DX003 (ip), vehicle: water): 124 % of control | T/C (endpoint: mean survival time, dose: 0.52 mg/kg/injection, schedule: Q04DX003 (ip), vehicle: water): 106 % of control | T/C (endpoint: mean survival time, dose: 1.44 mg/kg/injection, schedule: Q04DX003 (ip), vehicle: water): 112 % of control | T/C (endpoint: mean survival time, dose: 1.8 mg/kg/injection, schedule: Q04DX003 (ip), vehicle: water): 164 % of control | T/C (endpoint: mean survival time, dose: 4.0 mg/kg/injection, schedule: Q04DX003 (ip), vehicle: water): 104 % of control | T/C (endpoint: mean survival time, dose: 130.0 micrograms/kg/injection, schedule: Q01DX009 (ip), vehicle: water): 102 % of control | T/C (endpoint: mean survival time, dose: 216.0 micrograms/kg/injection, schedule: Q01DX009 (ip), vehicle: water): 107 % of control | T/C (endpoint: mean survival time, dose: 360.0 micrograms/kg/injection, schedule: Q01DX009 (ip), vehicle: water): 113 % of control | T/C (endpoint: mean survival time, dose: 600.0 micrograms/kg/injection, schedule: Q01DX009 (ip), vehicle: water): 120 % of control | T/C (endpoint: mean survival time, dose: 1000.0 micrograms/kg/injection, schedule: Q01DX009 (ip), vehicle: water): 122 % of control

CN(Cc1cnc2nc(N)nc(N)c2n1)c1ccc(C(=O)NC(CCC(=O)O)C(=O)O)cc1.[W] (centres undefined)
T/C (endpoint: median survival time, dose: 11.0 mg/kg/injection, schedule: Q01DX009 (ip), vehicle: water): 178 % of control | T/C (endpoint: median survival time, dose: 12.0 mg/kg/injection, schedule: Q01DX009 (ip), vehicle: water): 202 % of control | T/C (endpoint: median survival time, dose: 12.0 mg/kg/injection, schedule: Q01DX009 (other), vehicle: water): 202 % of control | T/C (endpoint: median survival time, dose: 14.0 mg/kg/injection, schedule: Q01DX009 (ip), vehicle: water): 190 % of control | T/C (endpoint: median survival time, dose: 14.0 mg/kg/injection, schedule: Q## X009 (ip), vehicle: water): 190 % of control | T/C (endpoint: median survival time, dose: 21.0 mg/kg/injection, schedule: Q01DX009 (ip), vehicle: water): 178 % of control | T/C (endpoint: median survival time, dose: 22.0 mg/kg/injection, schedule: Q01DX009 (ip), vehicle: water): 190 % of control | T/C (endpoint: median survival time, dose: 22.0 mg/kg/injection, schedule: Q01DX009 (other), vehicle: water): 190 % of control | T/C (endpoint: median survival time, dose: 41.0 mg/kg/injection, schedule: Q01DX009 (ip), vehicle: water): 166 % of control | T/C (endpoint: median survival time, dose: 42.0 mg/kg/injection, schedule: Q01DX009 (ip), vehicle: water): 166 % of control | T/C (endpoint: median survival time, dose: 42.0 mg/kg/injection, schedule: Q01DX009 (other), vehicle: water): 166 % of control

CN(C)c1nc(N)nc(-c2ccncc2)n1
T/C (endpoint: mean survival time, dose: 12.0 mg/kg/injection, schedule: Q04DX002 (ip), vehicle: saline): 100 % of control | T/C (endpoint: mean survival time, dose: 24.0 mg/kg/injection, schedule: Q04DX002 (ip), vehicle: saline): 96 % of control | T/C (endpoint: mean survival time, dose: 48.0 mg/kg/injection, schedule: Q04DX002 (ip), vehicle: saline): 92 % of control

S=C(S)NCCNC(=S)S
T/C (endpoint: mean survival time, dose: 100.0 mg/kg/injection, schedule: Q01DX009 (ip), vehicle: saline): 102 % of control | T/C (endpoint: mean survival time, dose: 200.0 mg/kg/injection, schedule: Q01DX009 (ip), vehicle: saline): 100 % of control | T/C (endpoint: mean survival time, dose: 400.0 mg/kg/injection, schedule: Q01DX009 (ip), vehicle: saline): 90 % of control

C=CCSc1ncnc2c1ncn2C1OC(CO)C(O)C1O (centres undefined)
T/C (endpoint: mean survival time, dose: 88.0 mg/kg/injection, schedule: Q01DX009 (ip), vehicle: carboxymethylcellulose (CMC)): 154 % of control | T/C (endpoint: mean survival time, dose: 133.0 mg/kg/injection, schedule: Q01DX009 (ip), vehicle: carboxymethylcellulose (CMC)): 158 % of control

CC(C)(C)S/C(=N/N=O)NN=O
T/C (endpoint: mean survival time, dose: 100.0 mg/kg/injection, schedule: Q01DX001 (ip), vehicle: saline with Tween-80): 100 % of control | T/C (endpoint: mean survival time, dose: 200.0 mg/kg/injection, schedule: Q01DX001 (ip), vehicle: saline with Tween-80): 102 % of control | T/C (endpoint: mean survival time, dose: 400.0 mg/kg/injection, schedule: Q01DX001 (ip), vehicle: saline with Tween-80): 94 % of control

c1ccc2sc(NN=c3c4ccccc4sc4ccccc34)nc2c1
T/C (endpoint: mean survival time, dose: 75.0 mg/kg/injection, schedule: Q01DX001 (ip), vehicle: other): 107 % of control | T/C (endpoint: mean survival time, dose: 150.0 mg/kg/injection, schedule: Q01DX001 (ip), vehicle: other): 100 % of control | T/C (endpoint: mean survival time, dose: 300.0 mg/kg/injection, schedule: Q01DX001 (ip), vehicle: other): 94 % of control
